Results on one compound are retold here after US12291513B2, “Pyridinium derivatives made by hydrothermal synthesis for use as anolytes in electrochemical cells” (Wisconsin Alumni Research Foundation, priority 2021, dated 2025).

A short description of data set [1]: Viscosity (rheometer). In kind it is physicochemical. To be noted: for viscosity: pure water. The method, then: Viscosity measurements were carried out using an Ares G2 rheometer (TA Instruments) with an advanced Peltier system at 25° C.
The nature of data set [2]: Electrochemical impedance spectroscopy (EIS). In kind it is physicochemical. The method, then:
CV and EIS experiments were ran using a PalmSens4 potentiostat with the PSTrace software. Electrochemical experiments were performed in 1.0 M NaCl supporting electrolyte using 15 mM of active material at room temperature (18° C.). Formal potentials for the redox couples were estimated by taking the average potential between the cathodic and anodic peak. Diffusional behavior was investigated by varying the scan rate between 10-100 mV·s^−1 for the first electron reduction and 50-200 mV·s^−1 for the second electron reduction, and the diffusion constants of the reduced and oxidized states (D^R and D^O) were determined via the Randles-Sevcik equation assuming ideal reversible behavior (FIG. 12D). Potentiostatic EIS measurements were used for determination of a combined diffusional constant of the reduced and oxidized states (D^EIS) and of the standard electron kinetic rate constant (k^o). These EIS measurements were performed at the formal reduction potential (held for 30 seconds before measurement) in which the concentration of the two redox states at the electrode surface were assumed to be the same and equal to half of the initially prepared redox species concentration.
A glassy carbon working electrode (CH Instruments, 0.0707 cm^2), a saturated calomel reference electrode (SCE, CH Instruments, +0.241 V vs. SHE), and a platinum wire counter electrode were used for both CV and EIS measurements. The working electrode was polished with 1 μm, 0.3 μm, and 0.05 μm alumina slurry successively. All electrodes were rinsed with deionized water in between measurements.
Potentiostatic EIS measurements were taken at the formal potential in which the reduction and oxidation processes are at equilibrium and the concentrations of the reduced and oxidized states can be assumed equal. This permitted simple calculation of the standard kinetic rate constant (k^o) via Eqn. 2 where R is the ideal gas constant, T is temperature, n is number of electrons, RCT is the charge-transfer resistance, F is Faraday's constant, A is the electrode surface area in cm^2, and C is the concentration of either the oxidized or reduced form at the electrode surface in mole cm^−3 (which is assumed to be half of the initially prepared redox species concentration, C═C^O═C^R=0.5 Cinitial).
A combined diffusion coefficient of the reduced and oxidized state (D^EIS) can also be determined using Eqn. 3, where σ is the Warburg diffusional impedance variable and all other variables have the previously defined meaning.
RCT and σ can be determined by fitting the impedance spectrum to the ideal Randles equivalent circuit for a 3-electrode system where Ru is the uncompensated resistance between the working and reference electrode, RCT is the charge transfer resistance between the working electrode and the redox species, WD is the Warburg diffusional element, and CPE is the constant phase element that represents capacitive behavior of the working electrode.
The raw data was fitted based on this equivalent circuit using the Z-Fitting tool on the PSTrace software and with the Levenberg-Marquardt algorithm across the entire measured frequency range. For the second redox state, D2^EIS were 3.6×10^−6 cm^2·s^−1 and 3.8×10^−6 cm^2·s^−1 and k2^o were 0.13 cm·s^−1 and 0.23 cm·s^−1 for Dex-Vi and BTMAP-Vi, respectively.

A short description of data set [3]: Degradation kinetics in sodium hydroxide. As to conditions: one-and-one-half order overall.
Excerpt: The chemical stability of the first redox processes of Dex-Vi was investigated using a symmetric, volumetrically-unbalanced flow cell inside an N2 glovebox.
Data set [4] can be described thus: Degradation in 1M KOH. In kind it is physicochemical.

In the case of `C[N+](C)(C)CC(O)C[n+]1ccc(-c2cc[n+](CC(O)C[N+](C)(C)C)cc2)cc1` (stereo not drawn) [Dex-Vi, bis(3-trimethylammonio-2-hydroxy)propyl viologen tetrachloride], the “Viscosity at 1M, 25° C.” value in data set [1] (1M, 25° C.) stood at 14.2 cP. The viscosity in data set [1] (0.25 M) came to 1.1 cP. For the same compound, the viscosity in data set [1] (0.50 M) turned out to be 1.8 cP. Moreover, the viscosity in data set [1] (1.0 M) was found to be 4.7 cP. In data set [1] (1.5 M), this compound showed a viscosity of 50 cP. In addition, in data set [2] (Example 2), the “EIS D” value worked out at 3.516E−06 cm^2/s, the “EIS i^0” value amounted to 6.57E−04 A and the “EIS k^0” value was 0.0128 cm/s. Moreover, in data set [2] (Table 1), the “k1^0” value worked out at 0.05 cm/s. Also, in data set [2] (first reduction), the “combined diffusion coefficient (D1^EIS)” value is on record as 3.9×10^−6 cm^2·s^−1 and the “standard rate constant (k1^0)” value is 0.05 cm/s. In data set [2] (second redox state), the “D2^EIS” value is 3.6×10^−6 cm^2·s^−1 and the “k2^o” value was determined as 0.13 cm/s. Also, the “degradation rate constant k” value in data set [3] is 2.3×10^−6 s^−1·M^−1/2. Moreover, the “Degradation in 1M KOH, k” value in data set [4] amounted to 3.22e-06 s⁻¹.

As a reminder, the viscosity is the internal friction of a fluid under shear.
